# Experimental data from PMC11149917, “Translational and Therapeutic Evaluation of RAS-GTP Inhibition by RMC-6236 in RAS-Driven Cancers” (Cancer Discovery, 2024).
# Read-outs that look alike come from different tables or passages of the source.
# Assay: Mouse blood and tissue PK (LC/MS-MS)
# Type: in vivo
# Conditions: mouse; for concentration at 2 h / concentration at 24 h / concentration at 4 h / concentration at 8 h / concentration at 48 h / Kp: oral; for concentration at 2 h / concentration at 24 h / concentration at 4 h / concentration at 8 h / concentration at 48 h: read-out: RMC-6236 (nM) Tumor; for Kp: tumor relative to whole blood, read-out: Tumor/Blood AUC Ratio; for AUC(0-t): read-out: Blood AUClast
# Description: For single-dose PKPD study, mice were randomized and assigned into groups (n = 3/dose/time point). […] Blood and tissues, including the tumor, brain, colon, ear skin, and muscle, were harvested at indicated time points. […] The whole blood, tumor, brain, colon, and ear skin concentrations of RMC-6236 were determined using liquid chromatography–tandem mass spectrometry (LC/MS-MS) methods. […] After thorough mixing and centrifugation, the supernatant was diluted with water or directly analyzed on a Sciex 5500 or Sciex 6500+ triple quadrupole mass spectrometer equipped with an ACQUITY or Shimadzu UPLC system. […] Bioanalysis on blood and tissue samples from xenograft models was run at Pharmaron and Wuxi AppTec. Concentrations reported as below the quantification limit were treated as zero for PK analysis. PK parameters were calculated by noncompartmental analysis of the concentration–time profiles using Phoenix WinNonLin (version 8.3 Certara). Apparent terminal elimination half-life (t1/2) values were calculated as ln(2)/k, where k represents the terminal elimination rate constant. Area under the concentration–time curve (AUC) values were estimated using a linear trapezoidal method. AUClast values were calculated from the dosing time to the last quantifiable concentration. Maximum concentration (Cmax) was recorded as observed.
# [1] = BALB/c nude, ear skin, 3 mg/kg, sheet Ear Skin, model Capan-2, study Capan-2 #3_PHA 2023, 3 mg/kg
# [2] = BALB/c nude, ear skin, 10 mg/kg, sheet Ear Skin, model Capan-2, study Capan-2 #3_PHA 2023, 10 mg/kg
# [3] = BALB/c nude, ear skin, 25 mg/kg, sheet Ear Skin, model Capan-2, study Capan-2 #3_PHA 2023, 25 mg/kg
# [4] = BALB/c nude, ear skin, 50 mg/kg, sheet Ear Skin, model Capan-2, study Capan-2 #3_PHA 2023, 50 mg/kg
# [5] = BALB/c nude, ear skin, 100 mg/kg, sheet Ear Skin, model Capan-2, study Capan-2 #3_PHA 2023, 100 mg/kg
# [6] = BALB/c nude, tumor, 0.3 mg/kg, Capan-2, study Capan-2 #3_PHA 2020, 0.3 mg/kg
# [7] = BALB/c nude, tumor, 3 mg/kg, Capan-2, study Capan-2 #3_PHA 2020, 3 mg/kg
# [8] = BALB/c nude, tumor, 3 mg/kg, Capan-2, study Capan-2 #3_PHA 2023, 3 mg/kg
# [9] = BALB/c nude, tumor, 10 mg/kg, Capan-2, study Capan-2 #3_PHA 2020, 10 mg/kg
# [10] = BALB/c nude, tumor, 10 mg/kg, Capan-2, study Capan-2 #3_PHA 2023, 10 mg/kg
# [11] = BALB/c nude, tumor, 10 mg/kg, sheet colon, Capan-2, Capan-2 #3_PHA 2023, 10 mg/kg
# [12] = BALB/c nude, tumor, 25 mg/kg, Capan-2, study Capan-2 #3_PHA 2020, 25 mg/kg
# [13] = BALB/c nude, tumor, 25 mg/kg, Capan-2, study Capan-2 #3_PHA 2023, 25 mg/kg
# [14] = BALB/c nude, tumor, 25 mg/kg, sheet colon, Capan-2, Capan-2 #3_PHA 2023, 25 mg/kg
# [15] = BALB/c nude, tumor, 40 mg/kg, Capan-2, study Capan-2 #3_PHA 2020, 40 mg/kg
# [16] = BALB/c nude, tumor, 50 mg/kg, Capan-2, study Capan-2 #3_PHA 2023, 50 mg/kg
# [17] = BALB/c nude, tumor, 50 mg/kg, sheet colon, Capan-2, Capan-2 #3_PHA 2023, 50 mg/kg
# [18] = BALB/c nude, tumor, 100 mg/kg, Capan-2, study Capan-2 #3_PHA 2023, 100 mg/kg
# [19] = BALB/c nude, tumor, 100 mg/kg, sheet colon, Capan-2, Capan-2 #3_PHA 2023, 100 mg/kg
# [20] = BALB/c nude, whole blood, po, 3 mg/kg, Capan-2 (3 mg/kg), single dose
# [21] = BALB/c nude, whole blood, po, 10 mg/kg, Capan-2 (10 mg/kg), single dose
# [22] = BALB/c nude, whole blood, po, 25 mg/kg, Capan-2 (25 mg/kg), single dose
# [23] = Balb/c nude, whole blood, po, 25 mg/kg, LU99-luc IC #2 (25 mg/kg), single dose
smiles,measurement,setting,value
CCn1c(-c2cc(N3CCN(C)CC3)cnc2[C@H](C)OC)c2c3cc(ccc31)-c1csc(n1)C[C@H](NC(=O)[C@H]1C[C@@H]1C)C(=O)N1CCC[C@H](N1)C(=O)OCC(C)(C)C2 [RMC-6236],concentration at 2 h,"BALB/c nude, colon, 3 mg/kg, sheet colon, Capan-2, Capan-2 #3_PHA 2023, 3 mg/kg",1370 nM
same,concentration at 2 h,"BALB/c nude, colon, 25 mg/kg, sheet colon, Capan-2, Capan-2 #3_PHA 2023, 25 mg/kg",5810 nM
same,concentration at 24 h,"BALB/c nude, colon, 50 mg/kg, sheet colon, Capan-2, Capan-2 #3_PHA 2023, 50 mg/kg",147 nM
same,concentration at 24 h,"BALB/c nude, colon, 100 mg/kg, sheet colon, Capan-2, Capan-2 #3_PHA 2023, 100 mg/kg",531 nM
same,concentration at 2 h,[1],175 nM
same,concentration at 4 h,[1],255 nM
same,concentration at 8 h,[1],195 nM
same,concentration at 24 h,[1],48.3 nM
same,concentration at 2 h,[2],469 nM
same,concentration at 4 h,[2],883 nM
same,concentration at 8 h,[2],1080 nM
same,concentration at 24 h,[2],219 nM
same,concentration at 48 h,[2],41.6 nM
same,concentration at 2 h,[3],1640 nM
same,concentration at 4 h,[3],2370 nM
same,concentration at 8 h,[3],1360 nM
same,concentration at 24 h,[3],512 nM
same,concentration at 48 h,[3],147 nM
same,concentration at 2 h,[4],5540 nM
same,concentration at 4 h,[4],7670 nM
same,concentration at 8 h,[4],4410 nM
same,concentration at 24 h,[4],1110 nM
same,concentration at 48 h,[4],276 nM
same,concentration at 2 h,[5],12300 nM
same,concentration at 8 h,[5],6560 nM
same,concentration at 24 h,[5],2500 nM
same,Kp,"BALB/c nude, 3 mg/kg, Capan-2 (3 mg/kg), single dose",3.3
same,Kp,"BALB/c nude, 10 mg/kg, Capan-2 (10 mg/kg), single dose",4.6
same,Kp,"BALB/c nude, 25 mg/kg, Capan-2 (25 mg/kg), single dose",5.8
same,concentration at 2 h,[6],15.2 nM
same,concentration at 8 h,[6],14.8 nM
same,concentration at 24 h,[6],5.5 nM
same,concentration at 2 h,[7],314 nM
same,concentration at 8 h,[7],136 nM
same,concentration at 24 h,[7],67 nM
same,concentration at 48 h,[7],22 nM
same,concentration at 2 h,[8],148 nM
same,concentration at 4 h,[8],290 nM
same,concentration at 8 h,[8],231 nM
same,concentration at 24 h,[8],109 nM
same,concentration at 48 h,[8],48.6 nM
same,concentration at 8 h,"BALB/c nude, tumor, 3 mg/kg, sheet colon, Capan-2, Capan-2 #3_PHA 2023, 3 mg/kg",567 nM
same,concentration at 2 h,[9],671 nM
same,concentration at 8 h,[9],829 nM
same,concentration at 24 h,[9],406 nM
same,concentration at 48 h,[9],101 nM
same,concentration at 2 h,[10],630 nM
same,concentration at 4 h,[10],1230 nM
same,concentration at 8 h,[10],1120 nM
same,concentration at 24 h,[10],563 nM
same,concentration at 48 h,[10],142 nM
same,concentration at 4 h,[11],3110 nM
same,concentration at 8 h,[11],1860 nM
same,concentration at 24 h,[11],40.6 nM
same,concentration at 2 h,[12],2200 nM
same,concentration at 8 h,[12],2400 nM
same,concentration at 24 h,[12],1250 nM
same,concentration at 2 h,[13],2210 nM
same,concentration at 4 h,[13],3050 nM
same,concentration at 8 h,[13],2290 nM
same,concentration at 24 h,[13],1130 nM
same,concentration at 4 h,[14],6440 nM
same,concentration at 8 h,[14],3260 nM
same,concentration at 2 h,[15],3660 nM
same,concentration at 8 h,[15],3360 nM
same,concentration at 24 h,[15],1740 nM
same,concentration at 2 h,[16],4650 nM
same,concentration at 4 h,[16],5600 nM
same,concentration at 8 h,[16],5310 nM
same,concentration at 24 h,[16],2520 nM
same,concentration at 2 h,[17],21800 nM
same,concentration at 4 h,[17],10600 nM
same,concentration at 2 h,[18],10400 nM
same,concentration at 4 h,[18],17300 nM
same,concentration at 8 h,[18],7500 nM
same,concentration at 24 h,[18],4270 nM
same,concentration at 48 h,[18],1150 nM
same,concentration at 2 h,[19],25300 nM
same,concentration at 4 h,[19],30100 nM
same,half-life,"BALB/c nude, tumor, po, 3 mg/kg, Capan-2 (3 mg/kg), single dose, read-out: Tumor t1/2 (converted)",16.6 h
same,half-life,"BALB/c nude, tumor, po, 10 mg/kg, Capan-2 (10 mg/kg), single dose, read-out: Tumor t1/2 (converted)",15.7 h
same,half-life,"BALB/c nude, tumor, po, 25 mg/kg, Capan-2 (25 mg/kg), single dose, read-out: Tumor t1/2 (converted)",14 h
same,Cmax,[20],252 ng/mL
same,AUC(0-t),[20],1560 ng·h/mL
same,Cmax,[21],950 ng/mL
same,AUC(0-t),[21],5090 ng·h/mL
same,half-life,"BALB/c nude, whole blood, po, 10 mg/kg, Capan-2 (10 mg/kg), single dose, read-out: Blood t1/2 (converted)",3.77 h
same,Cmax,[22],2920 ng/mL
same,AUC(0-t),[22],11600 ng·h/mL
same,half-life,"BALB/c nude, whole blood, po, 25 mg/kg, Capan-2 (25 mg/kg), single dose, read-out: Blood t1/2 (converted)",2.77 h
same,half-life,"Balb/c nude, tumor (intracranial), po, 25 mg/kg, LU99-luc IC (25 mg/kg), intracranial tumor, read-out: Tumor t1/2 (converted)",16.1 h
same,half-life,"Balb/c nude, tumor (subcutaneous xenograft), sc, 25 mg/kg, LU99-luc SC (25 mg/kg), subcutaneous xenograft tumor, read-out: Tumor t1/2 (converted)",25.3 h
same,Cmax,[23],2020 ng/mL
same,AUC(0-t),[23],14000 ng·h/mL
same,Cmax,"Balb/c nude, whole blood, po, 25 mg/kg, LU99-luc IC (25 mg/kg), single dose",2500 ng/mL
